Values quoted from earlier work as cited in patent US20070202162A1, “EXTENDED RELEASE PHARMACEUTICAL COMPOSITIONS” (priority 2006, published 2007).
Counter-ions that a name gives are not always drawn.

Conditions: in water and ethanol

## CC(C)NCC(O)COc1cccc2ccccc12 (stereo not shown) [Propranolol hydrochloride, 1-(Isopropylamino)-3-(1-naphthyloxy)-2-propanol]
  solubility: readily soluble in water and ethanol
